The source of these data is ChEMBL document CHEMBL1128157, “Stereochemical differentiation of anticonvulsant and antihypertensive effects in 4-(fluorobenzoylamino)-benzopyrans” (1995).

SMILES strings stand for the structures.

One assay has as its system Mus musculus. Nature of the assay: Change in threshold voltage (applied via a subcutaneous and a buccal electrode) for inducing tonic hind limb extension seizures in 50% (CV50) in mouse MEST model at a dose of 30 mg/kg orally. The class given is functional, Hindlimb. Conditions: route oral.
As to `CC1(C)Oc2ccccc2C(NC(=O)c2ccc(F)cc2)[C@@H]1O` (stereo partly specified), the Change is 13%. Turning to `CC1(C)Oc2ccc(C#N)cc2C(NC(=O)c2ccc(C#N)cc2)[C@@H]1O` (stereo partly specified), the Change was 7%. On the same count and under the same terms, the figure for `CC(C)c1ccc2c(c1)C(NC(=O)c1ccc(F)cc1)[C@H](O)C(C)(C)O2` (stereo partly specified) is 19%; for `CC1(C)Oc2ccc(-c3ccccc3)cc2C(NC(=O)c2ccc(F)cc2)[C@@H]1O` (stereo partly specified) it is 20%; for `CN(C(=O)c1ccc(F)cc1)C1c2cc(C#N)ccc2OC(C)(C)[C@H]1O` (stereo partly specified) it is 26%. Still for that read-out and setting: the figure for `CC1(C)Oc2ccc(C#N)cc2C(NC(=O)c2ccc(O)cc2)[C@@H]1O` (stereo partly specified) is -2%; for `COc1ccc2c(c1)C(NC(=O)c1ccc(F)cc1)[C@H](O)C(C)(C)O2` (stereo partly specified) it is 28%.

In the next assay the test system is Mus musculus. Nature of the assay: Increase in threshold voltage (applied via a subcutaneous and a buccal electrode) for inducing tonic hind limb extension seizures in 50% (CV50) in mouse MEST model at a dose of 10 mg/kg orally. The format is functional, Hindlimb. The conditions noted are these: route oral.
As for `CC1(C)Oc2ccc(C#N)cc2[C@@H](NC(=O)c2ccc(F)cc2)[C@@H]1O`, the Change was determined as 17%. Same read-out and setting: with `CC(C)(C)c1ccc2c(c1)C(N1CCCC1=O)[C@H](O)C(C)(C)O2` (stereo partly specified) the figure was 12%; with `CC1(C)Oc2ccc(C#N)cc2[C@@H](NC(=O)c2cccc(F)c2)[C@@H]1O`, 12%. For `CC1(C)Oc2ccc(C#N)cc2C(NC(=O)c2ccccc2)[C@@H]1O` (stereo partly specified), the Change turned out to be 29%. Still for that read-out and setting: with `CC1(C)Oc2ccc(C#N)cc2C(NC(=O)c2ccc(F)cc2)[C@@H]1O` (stereo partly specified) the figure was 49%.

On to `CC1(C)Oc2ccc(C#N)cc2[C@H](NC(=O)c2cccc(F)c2)[C@H]1O`, for which the Change was found to be 50%.

`CC1(C)C=C(N2CCCC2=O)c2cc(C#N)ccc2O1`: the Change was 4%. The same measure, in the same setting: the figure for `CC1(C)Oc2ccc(C#N)cc2[C@H](NC(=O)c2ccc(F)cc2)[C@H]1O` is 41%.

The test system of another assay is Mus musculus. Nature of the assay: Change in threshold voltage (applied via a subcutaneous and a buccal electrode) for inducing tonic hind limb extension seizures in 50% (CV50) in mouse MEST model at a dose of 10 mg/kg intraperitoneally 30 min pretest. The class given is functional, Hindlimb.
Details: not given
With `CC1(C)Oc2ccc(C#N)cc2C(N2CCCC2=O)C1O` (racemic) [CROMAKALIM], the Change is -16%.

In a further assay the test system is Mus musculus. Nature of the assay: Dose required to produce a 50% elevation in seizure threshold after oral administration. The class given is functional.
Details: not given
In the case of `CCC1(c2ccccc2)C(=O)NC(=O)NC1=O` [PHENOBARBITAL], it took a dose of 10.6 mg/kg to reach the 50% effect level (ED50). Still for that read-out and setting: the figure for `NC(=O)N1c2ccccc2C=Cc2ccccc21` [CARBAMAZEPINE] is 12.7 mg/kg.

A further assay deals with Mus musculus. Nature of the assay: Change in threshold voltage (applied via a subcutaneous and a buccal electrode) for inducing tonic hind limb extension seizures in 50% (CV50) in mouse MEST model at a dose of 10 mg/kg orally. The class given is functional, Hindlimb. Conditions: route oral.
Turning to `CC1(C)Oc2ccncc2C(NC(=O)c2ccc(F)cc2)[C@@H]1O` (stereo partly specified), the Change is listed as 5%. On to `CC1(C)Oc2ccc(C#N)cc2C(N2CCCC2=O)C1O` (racemic) [CROMAKALIM], for which the Change was found to be 4%. Consider `CC1(C)Oc2ccc(C(F)(F)F)cc2C(NC(=O)c2ccc(F)cc2)[C@@H]1O` (stereo partly specified), for which the Change came out at 33%.

A word on the ED50: it is the midpoint of the dose-response relation. A lower ED50 goes with greater potency.
